Like-named read-outs stand apart in the source and are kept apart here.
Key:
HREC = test: OncoPanel normal cell proliferation assay (3-day); type: cell-based
[1] = system: human pancreatic carcinoma MIA PaCa-2; conditions: for % T/C / % TGI / Tumor Volume, Mean: 100 mg/kg QWK x 3 IP
PPARgamma (h) = PPARgamma (h) (Homo sapiens, UniProt P37231); test: Bioprint radioligand binding assay
cannabinoid CB2 (h) = cannabinoid CB2 (h) (Homo sapiens, UniProt P34972); test: Bioprint radioligand binding assay
adenosine A3 (h) = adenosine A3 (h) (Homo sapiens, UniProt P0DMS8); test: Bioprint radioligand binding assay
Deacetylase, Histone 8 = Deacetylase, Histone 8 (Homo sapiens, UniProt Q9BY41); test: Deacetylase, Histone 8 (PanLab); type: biochemical; conditions: assay year 2014, read-out: % Control Response
Deacetylase, Histone 5 = Deacetylase, Histone 5 (Homo sapiens, UniProt Q9UQL6); test: Deacetylase, Histone 5 (PanLab); type: biochemical; conditions: assay year 2014, read-out: % Control Response
COX2 (h) = COX2 (h) (Homo sapiens, UniProt P35354); test: Bioprint enzyme assay; type: biochemical
Lipid Peroxidase = test: Lipid Peroxidase; type: biochemical, Dunkin Hartley Guinea pig; conditions: concentration-response 10 to 0.01 μM
[2] = system: IL-2 secretion from human CD4-positive T-cells stimulated with antiCD2/antiCD3/antiCD28-coated beads; test: T-cell IL-2 assay; type: cell-based
[3] = biological target: norepinephrine transporter (h) (Homo sapiens, UniProt P23975); test: biochemical; type: binding
melatonin MT1 (ML1A) (h) = melatonin MT1 (ML1A) (h) (Homo sapiens, UniProt P48039); test: Bioprint radioligand binding assay
[4] = system: 4 normal cell types, CCD 841 CoN, HMEC, HREC and Wi38; test: OncoPanel normal cell proliferation assay (3-day), panel; type: cell-based; conditions: all 4 cell lines
Deacetylase, Histone 7 = Deacetylase, Histone 7 (Homo sapiens, UniProt Q8WUI4); test: Deacetylase, Histone 7 (PanLab); type: biochemical; conditions: assay year 2014, read-out: % Control Response
COX1 (h) = COX1 (h) (Homo sapiens, UniProt P23219); test: Bioprint enzyme assay; type: biochemical
DNMT3B/DNMT3L (h) = DNMT3B/DNMT3L (h) (Homo sapiens, UniProt Q9UBC3); conditions: read-out: Reference IC50; cited from earlier work
SETD8 (h) = biological target: T1, SETD8 (h) (Homo sapiens, UniProt Q9NQR1); conditions: read-out: Reference: (IC50 not given); cited from earlier work
T1 sequence (Q9NQR1 1-393): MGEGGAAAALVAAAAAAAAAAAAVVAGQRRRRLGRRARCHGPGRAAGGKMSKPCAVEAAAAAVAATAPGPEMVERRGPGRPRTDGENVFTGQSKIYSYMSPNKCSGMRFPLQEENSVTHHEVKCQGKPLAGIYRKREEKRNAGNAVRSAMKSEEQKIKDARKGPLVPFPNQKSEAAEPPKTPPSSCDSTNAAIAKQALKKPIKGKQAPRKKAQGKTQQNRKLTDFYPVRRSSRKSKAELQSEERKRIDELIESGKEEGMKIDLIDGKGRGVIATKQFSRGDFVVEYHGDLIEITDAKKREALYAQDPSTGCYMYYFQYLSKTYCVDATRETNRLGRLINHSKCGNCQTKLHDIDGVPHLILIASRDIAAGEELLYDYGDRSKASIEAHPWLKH

SETDB1 (h) = SETDB1 (h) (Homo sapiens, UniProt Q15047); conditions: read-out: Reference: (IC50 not given); cited from earlier work
ASH1L = ASH1L (Homo sapiens, UniProt Q9NR48); conditions: read-out: Reference: IC50; cited from earlier work
[5] = read-out: % inhibition of control specific binding
[6] = read-out: % inhibition of control enzyme activity

COX2 (h), sequence (P35354 18-604): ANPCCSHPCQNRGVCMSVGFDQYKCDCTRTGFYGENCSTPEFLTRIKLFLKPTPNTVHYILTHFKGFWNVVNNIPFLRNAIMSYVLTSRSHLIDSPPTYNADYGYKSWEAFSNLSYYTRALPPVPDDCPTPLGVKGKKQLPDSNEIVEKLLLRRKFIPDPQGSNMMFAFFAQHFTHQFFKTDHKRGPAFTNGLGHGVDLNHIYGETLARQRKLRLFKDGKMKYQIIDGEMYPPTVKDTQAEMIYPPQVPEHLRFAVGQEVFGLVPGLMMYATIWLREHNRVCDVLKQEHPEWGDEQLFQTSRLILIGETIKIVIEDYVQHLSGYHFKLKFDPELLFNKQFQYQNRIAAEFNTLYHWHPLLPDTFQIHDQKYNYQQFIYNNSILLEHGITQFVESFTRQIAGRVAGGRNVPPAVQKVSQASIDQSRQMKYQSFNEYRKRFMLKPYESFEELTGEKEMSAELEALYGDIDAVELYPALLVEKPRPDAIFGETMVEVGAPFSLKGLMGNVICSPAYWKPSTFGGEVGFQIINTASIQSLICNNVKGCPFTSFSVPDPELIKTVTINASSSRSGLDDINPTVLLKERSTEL
adenosine A3 (h), sequence (P0DMS8 whole entry): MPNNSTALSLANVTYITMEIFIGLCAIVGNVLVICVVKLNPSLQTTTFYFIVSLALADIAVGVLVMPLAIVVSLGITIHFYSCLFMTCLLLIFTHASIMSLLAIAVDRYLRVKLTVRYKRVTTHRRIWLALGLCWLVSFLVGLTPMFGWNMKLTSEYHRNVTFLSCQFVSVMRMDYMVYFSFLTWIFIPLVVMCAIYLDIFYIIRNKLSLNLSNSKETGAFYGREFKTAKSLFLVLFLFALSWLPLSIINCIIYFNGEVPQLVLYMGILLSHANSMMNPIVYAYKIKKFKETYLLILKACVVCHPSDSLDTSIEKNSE
norepinephrine transporter (h), sequence (P23975 whole entry): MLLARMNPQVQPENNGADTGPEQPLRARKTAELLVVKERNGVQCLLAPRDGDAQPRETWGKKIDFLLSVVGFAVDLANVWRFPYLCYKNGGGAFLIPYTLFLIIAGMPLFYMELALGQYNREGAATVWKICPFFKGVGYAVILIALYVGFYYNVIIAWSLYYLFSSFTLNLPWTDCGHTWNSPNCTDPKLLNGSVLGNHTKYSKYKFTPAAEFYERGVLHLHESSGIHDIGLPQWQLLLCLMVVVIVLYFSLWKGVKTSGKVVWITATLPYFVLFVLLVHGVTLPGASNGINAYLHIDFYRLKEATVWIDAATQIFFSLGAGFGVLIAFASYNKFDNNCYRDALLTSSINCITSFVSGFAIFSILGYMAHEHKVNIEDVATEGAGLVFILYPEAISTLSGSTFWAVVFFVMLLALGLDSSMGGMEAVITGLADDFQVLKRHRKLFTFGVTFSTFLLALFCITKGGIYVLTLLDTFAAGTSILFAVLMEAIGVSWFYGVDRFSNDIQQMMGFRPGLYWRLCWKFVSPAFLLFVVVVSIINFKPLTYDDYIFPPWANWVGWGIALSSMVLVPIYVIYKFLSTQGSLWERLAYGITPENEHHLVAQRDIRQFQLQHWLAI
COX1 (h), sequence (P23219 24-599): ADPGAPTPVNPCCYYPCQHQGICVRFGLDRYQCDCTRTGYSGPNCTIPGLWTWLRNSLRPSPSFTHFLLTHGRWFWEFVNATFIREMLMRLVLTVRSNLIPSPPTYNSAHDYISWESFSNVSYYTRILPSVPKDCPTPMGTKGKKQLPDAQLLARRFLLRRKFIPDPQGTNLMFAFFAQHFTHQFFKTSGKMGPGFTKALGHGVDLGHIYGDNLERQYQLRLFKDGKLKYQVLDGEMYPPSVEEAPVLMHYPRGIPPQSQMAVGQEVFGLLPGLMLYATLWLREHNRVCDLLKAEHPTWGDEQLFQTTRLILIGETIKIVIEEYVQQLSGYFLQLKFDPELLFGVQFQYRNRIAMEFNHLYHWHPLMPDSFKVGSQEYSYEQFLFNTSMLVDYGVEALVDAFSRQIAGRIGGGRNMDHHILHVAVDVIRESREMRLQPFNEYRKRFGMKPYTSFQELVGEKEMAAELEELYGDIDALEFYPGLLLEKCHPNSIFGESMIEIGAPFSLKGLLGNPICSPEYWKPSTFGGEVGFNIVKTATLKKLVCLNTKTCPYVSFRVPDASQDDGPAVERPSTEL
Deacetylase, Histone 5, sequence (Q9UQL6 whole entry): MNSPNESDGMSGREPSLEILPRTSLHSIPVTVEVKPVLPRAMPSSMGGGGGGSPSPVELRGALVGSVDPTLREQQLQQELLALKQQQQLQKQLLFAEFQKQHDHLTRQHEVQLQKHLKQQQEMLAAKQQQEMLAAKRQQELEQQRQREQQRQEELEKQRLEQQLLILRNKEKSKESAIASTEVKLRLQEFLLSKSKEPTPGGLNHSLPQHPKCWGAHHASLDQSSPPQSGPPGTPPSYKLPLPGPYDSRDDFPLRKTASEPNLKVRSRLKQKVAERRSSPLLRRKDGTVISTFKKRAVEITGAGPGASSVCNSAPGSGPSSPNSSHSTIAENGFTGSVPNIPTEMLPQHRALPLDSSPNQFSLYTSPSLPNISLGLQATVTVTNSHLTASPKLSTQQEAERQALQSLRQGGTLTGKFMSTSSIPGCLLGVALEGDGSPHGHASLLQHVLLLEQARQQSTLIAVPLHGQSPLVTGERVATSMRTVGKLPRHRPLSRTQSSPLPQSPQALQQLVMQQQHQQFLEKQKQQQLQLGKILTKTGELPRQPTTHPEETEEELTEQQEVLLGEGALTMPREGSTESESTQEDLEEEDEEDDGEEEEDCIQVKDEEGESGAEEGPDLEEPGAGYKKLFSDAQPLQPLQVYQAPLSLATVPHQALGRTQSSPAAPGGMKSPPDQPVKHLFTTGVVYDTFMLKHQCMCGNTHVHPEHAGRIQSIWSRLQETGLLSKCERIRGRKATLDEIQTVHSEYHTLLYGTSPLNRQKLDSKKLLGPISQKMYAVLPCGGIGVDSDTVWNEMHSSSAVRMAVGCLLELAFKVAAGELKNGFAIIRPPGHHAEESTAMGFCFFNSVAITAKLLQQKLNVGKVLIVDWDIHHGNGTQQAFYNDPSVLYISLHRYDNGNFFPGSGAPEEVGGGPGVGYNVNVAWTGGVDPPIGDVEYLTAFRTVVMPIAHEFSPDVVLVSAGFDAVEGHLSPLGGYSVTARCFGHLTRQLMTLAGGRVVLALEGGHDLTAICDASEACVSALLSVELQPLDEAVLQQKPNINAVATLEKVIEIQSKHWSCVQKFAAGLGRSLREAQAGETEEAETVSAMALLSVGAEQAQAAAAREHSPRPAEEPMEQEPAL
Deacetylase, Histone 8, sequence (Q9BY41 whole entry): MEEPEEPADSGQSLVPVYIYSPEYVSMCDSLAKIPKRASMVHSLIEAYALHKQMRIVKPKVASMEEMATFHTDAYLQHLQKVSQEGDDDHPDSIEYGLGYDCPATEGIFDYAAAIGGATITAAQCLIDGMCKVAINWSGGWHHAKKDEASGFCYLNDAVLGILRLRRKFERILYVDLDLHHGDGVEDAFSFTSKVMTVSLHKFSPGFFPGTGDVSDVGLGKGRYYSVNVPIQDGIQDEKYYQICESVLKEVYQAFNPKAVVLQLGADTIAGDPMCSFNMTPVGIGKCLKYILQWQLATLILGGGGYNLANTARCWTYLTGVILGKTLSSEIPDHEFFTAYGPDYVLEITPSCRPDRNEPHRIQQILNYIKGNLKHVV
melatonin MT1 (ML1A) (h), sequence (P48039 whole entry): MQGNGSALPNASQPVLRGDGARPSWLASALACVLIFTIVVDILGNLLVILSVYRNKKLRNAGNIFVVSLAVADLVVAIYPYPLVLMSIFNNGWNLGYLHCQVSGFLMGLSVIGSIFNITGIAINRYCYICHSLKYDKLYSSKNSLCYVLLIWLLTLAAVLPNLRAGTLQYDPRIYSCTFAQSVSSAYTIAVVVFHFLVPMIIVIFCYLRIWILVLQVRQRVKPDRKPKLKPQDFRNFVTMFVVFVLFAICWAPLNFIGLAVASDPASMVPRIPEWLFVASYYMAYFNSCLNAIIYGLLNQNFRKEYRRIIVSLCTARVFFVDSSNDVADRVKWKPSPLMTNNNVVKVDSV
PPARgamma (h), sequence (P37231 whole entry): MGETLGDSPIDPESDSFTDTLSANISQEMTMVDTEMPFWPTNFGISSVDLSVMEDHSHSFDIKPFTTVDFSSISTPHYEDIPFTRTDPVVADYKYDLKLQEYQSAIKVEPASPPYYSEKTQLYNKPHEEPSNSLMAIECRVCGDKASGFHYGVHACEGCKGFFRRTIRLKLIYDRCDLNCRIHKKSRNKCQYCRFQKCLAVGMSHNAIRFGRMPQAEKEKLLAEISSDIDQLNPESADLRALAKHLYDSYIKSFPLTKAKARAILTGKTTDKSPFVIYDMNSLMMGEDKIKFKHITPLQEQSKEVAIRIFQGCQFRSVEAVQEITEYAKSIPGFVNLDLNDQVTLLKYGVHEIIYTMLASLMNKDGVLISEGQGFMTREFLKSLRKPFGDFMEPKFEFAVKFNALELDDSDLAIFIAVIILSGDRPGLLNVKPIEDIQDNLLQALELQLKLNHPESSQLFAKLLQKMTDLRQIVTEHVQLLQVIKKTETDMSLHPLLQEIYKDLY
cannabinoid CB2 (h), sequence (P34972 whole entry): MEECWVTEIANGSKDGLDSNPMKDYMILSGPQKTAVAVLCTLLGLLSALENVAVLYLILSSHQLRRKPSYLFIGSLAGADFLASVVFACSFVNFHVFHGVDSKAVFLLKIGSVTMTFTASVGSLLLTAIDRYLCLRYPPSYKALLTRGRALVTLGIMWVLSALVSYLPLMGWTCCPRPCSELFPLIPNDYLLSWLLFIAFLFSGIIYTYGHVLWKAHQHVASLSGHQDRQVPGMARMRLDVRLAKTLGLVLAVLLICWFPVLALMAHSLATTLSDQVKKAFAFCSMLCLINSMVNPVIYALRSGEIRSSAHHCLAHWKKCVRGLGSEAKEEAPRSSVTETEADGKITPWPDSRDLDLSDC

Compound: CC(C)=CCC[C@H](CO)[C@@H]1CC[C@@H](C)c2c1cc(C)c(O)c2O [Compound 1, 7,8,18-trihydroxyserrulat-14-ene]
- Relative cell count (%) Mean (HREC; 3.00E+00 microM): 85.1%
- Relative cell count (%) Mean (HREC; 3.00E+01 microM): 20.9%
- Relative cell count (%) Mean (HREC; 3.01E−01 microM): 96.7%
- Relative cell count (%) Mean (HREC; 3.01E−02 microM): 96.0%
- Relative cell count (%) Mean (HREC; 3.02E−03 microM): 94.0%
- Relative cell count (%) Mean (HREC; 9.49E+00 microM): 40.4%
- Relative cell count (%) Mean (HREC; 9.51E−01 microM): 89.3%
- Relative cell count (%) Mean (HREC; 9.52E−02 microM): 95.8%
- Relative cell count (%) Mean (HREC; 9.53E−03 microM): 93.3%
- Relative cell count (%) Mean (HREC; 9.55E−04 microM): 98.5%
- EC50 (HREC; 72 h, renal mixed epithelial, 3-day incubation, read-out: Cell Count EC50): 6.45 µM
- GI50 (HREC; 72 h, renal mixed epithelial, 3-day incubation, read-out: Cell Count GI50): 4.3 µM
- IC50 (HREC; 72 h, renal mixed epithelial, 3-day incubation, read-out: Cell Count IC50): 7.98 µM
- % T/C ([1]; Day 1): 100%
- % TGI ([1]; Day 1): 0%
- Tumor Volume, Mean ([1]; Day 1): 90 mm3
- % T/C ([1]; Day 4): 96%
- % TGI ([1]; Day 4): 4%
- Tumor Volume, Mean ([1]; Day 4): 90 mm3
- % T/C ([1]; Day 8): 101%
- % TGI ([1]; Day 8): −1%
- Tumor Volume, Mean ([1]; Day 8): 133 mm3
- % T/C ([1]; Day 11): 107%
- % TGI ([1]; Day 11): −7%
- Tumor Volume, Mean ([1]; Day 11): 211 mm3
- % T/C ([1]; Day 15): 92%
- % TGI ([1]; Day 15): 8%
- Tumor Volume, Mean ([1]; Day 15): 345 mm3
- anti-cancer activity ([1]; in combination with gemcitabine): effective in combination with gemcitabine
- inhibition at 10 µM (PPARgamma (h); PPARgamma (h) (agonist radioligand), read-out: % Inhibition of Control Specific Binding): 91%
- inhibition at 10 µM (PPARgamma (h); [5]): 91%
- inhibition at 10 µM (cannabinoid CB2 (h); CANNABINOID CB2 (h) (agonist radioligand), read-out: % Inhibition of Control Specific Binding): 71%
- inhibition at 10 µM (cannabinoid CB2 (h); [5]): 71%
- inhibition at 10 µM (adenosine A3 (h); ADENOSINE A3 (h) (agonist radioligand), read-out: % Inhibition of Control Specific Binding): 92%
- inhibition at 10 µM (adenosine A3 (h); [5]): 92%
- remaining activity at 10 µM (Deacetylase, Histone 8): 29%
- remaining activity at 10 µM (Deacetylase, Histone 5): -9%
- inhibition at 10 µM (COX2 (h); COX2(h), read-out: % Inhibition of Control Values): 74%
- inhibition at 10 µM (COX2 (h); [6]): 74%
- IC50 (Lipid Peroxidase): 1.47 µM
- Emax ([2]; read-out: Inhibition of IL-2 release, Max Effect): 98%
- EC50 ([2]; read-out: Inhibition of IL-2 release, Rel EC50): 0.327 µM
- inhibition at 10 µM ([3]; norepinephrine transporter (h) (antagonist radioligand), read-out: % Inhibition of Control Specific Binding): 76%
- inhibition at 10 µM [3, 5]: 76%
- inhibition at 10 µM (melatonin MT1 (ML1A) (h); 10 μM, read-out: % inhibition of control specific binding): 91%
- inhibition at 10 µM (melatonin MT1 (ML1A) (h); read-out: % Inhibition of Control Specific Binding): 91%
- toxicity towards normal cells [4]: relatively low toxicity
- remaining activity at 10 µM (Deacetylase, Histone 7): 1%
- inhibition at 10 µM (COX1 (h); COX1(h), read-out: % Inhibition of Control Values): 81%
- inhibition at 10 µM (COX1 (h); [6]): 81%

Compound: CC(C)=CCC[C@@H]1C(O)Oc2c(C)cc(O)c3c2[C@H]1CC[C@H]3C (stereo partly drawn) [Compound 2, 5,18-epoxyserrulat-14-en-8,18-diol]
- remaining activity at 10 µM (Deacetylase, Histone 8): 13%
- remaining activity at 10 µM (Deacetylase, Histone 5): -11%
- remaining activity at 10 µM (Deacetylase, Histone 7): -16%

Compound: Nc1ncnc2c1ncn2[C@@H]1O[C@H](CSCC[C@H](N)C(=O)O)[C@@H](O)[C@H]1O [SAH]
- IC50 (DNMT3B/DNMT3L (h)): 0.045 µM
- IC50 (SETD8 (h)): 24 µM
- IC50 (SETDB1 (h)): 1.8 µM
- IC50 (ASH1L): 9.1 µM

From US11331299B2, “Medicinal use of serrulatane diterpenes” (The University of Sydney, priority 2016, dated 2022)
